Key:
CDK2 = CDK2 (Homo sapiens, UniProt P24941); experiment: direct assay of dexanabinol against CDK2; assay type: biochemical; conditions: when directly assayed; heading names CDK2/A
Text: (§1) However, we believe that CDKs are affected indirectly, in circumstances where more of the intracellular network that might mediate such effects remains present.

CDK5 = CDK5 (Homo sapiens, UniProt Q00535); experiment: direct assay of dexanabinol against CDK5; assay type: biochemical; conditions: when directly assayed; heading names CDK5/p25
Text: as §1

CDK5, sequence (Q00535 whole entry, species assumed): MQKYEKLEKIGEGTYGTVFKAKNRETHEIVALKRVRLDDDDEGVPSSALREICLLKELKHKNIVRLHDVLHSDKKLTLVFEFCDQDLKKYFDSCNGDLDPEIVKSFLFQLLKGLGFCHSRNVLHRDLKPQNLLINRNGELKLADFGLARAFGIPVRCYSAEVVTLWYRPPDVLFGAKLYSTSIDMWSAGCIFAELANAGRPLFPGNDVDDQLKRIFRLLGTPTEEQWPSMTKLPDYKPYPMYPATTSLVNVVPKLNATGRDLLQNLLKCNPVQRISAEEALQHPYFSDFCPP
CDK5, sequence (Q15078 99-307 partner limits assumed, species assumed): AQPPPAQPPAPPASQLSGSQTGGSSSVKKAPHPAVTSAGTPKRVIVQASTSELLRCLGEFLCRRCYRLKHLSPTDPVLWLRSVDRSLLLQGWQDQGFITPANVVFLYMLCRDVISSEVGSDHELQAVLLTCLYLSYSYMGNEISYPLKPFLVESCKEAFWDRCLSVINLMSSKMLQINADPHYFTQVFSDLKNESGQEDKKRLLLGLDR

Question: What does the source list for `CCCCCCC(C)(C)c1cc(O)c2c(c1)OC(C)(C)[C@H]1CC=C(CO)C[C@H]21` [Dexanabinol, 1, 1 dimethyl heptyl-(3S, 4S)-7-hydroxy-Δ^6-tetrahydrocannabinol]?
Answer: direct activity against CDK2 (CDK2): no significant direct activity; direct activity against CDK5 (CDK5): no significant direct activity

— patent US20150072020A1, “Dexanabinol or a Derivative Thereof for Use in the Treatment of Cancer in Dose Ranges of 2-30 mg/kg” (E-THERAPEUTICS PLC, priority 2012, published 2015)
